Residue numbers refer to the chain shown, from its start. Where two headings read alike, the source gives them in different places.
Tests used:
[1] = molecular target: T1, SHP2 E69K (Homo sapiens, UniProt Q06124, E69K); test: In vitro activity on SHP2 mutant E69K phosphatase; type: biochemical
T1 construct: recombinantly expressed full-length SHP2 (aa 1-593) with E69K and E76K; purchased Novoprotein Scientific Inc
T1 sequence (Q06124 1-593 E69K): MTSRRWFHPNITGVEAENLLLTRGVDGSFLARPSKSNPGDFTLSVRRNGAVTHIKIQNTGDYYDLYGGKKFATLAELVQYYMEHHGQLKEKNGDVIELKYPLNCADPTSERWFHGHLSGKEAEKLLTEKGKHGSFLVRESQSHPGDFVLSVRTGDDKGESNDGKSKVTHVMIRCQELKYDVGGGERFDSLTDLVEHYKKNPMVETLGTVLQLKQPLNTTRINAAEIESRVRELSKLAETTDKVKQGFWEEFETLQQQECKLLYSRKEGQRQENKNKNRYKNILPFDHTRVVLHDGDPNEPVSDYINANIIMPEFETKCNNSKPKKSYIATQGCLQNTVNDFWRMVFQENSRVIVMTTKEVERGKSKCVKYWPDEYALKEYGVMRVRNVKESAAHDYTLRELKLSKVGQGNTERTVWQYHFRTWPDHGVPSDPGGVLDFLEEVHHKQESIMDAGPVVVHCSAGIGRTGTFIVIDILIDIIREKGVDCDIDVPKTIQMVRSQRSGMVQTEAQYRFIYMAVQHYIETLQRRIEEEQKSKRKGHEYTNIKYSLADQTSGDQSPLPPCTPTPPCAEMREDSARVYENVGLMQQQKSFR
Experimental: (§1) The reaction solution was shaked (350 rpm) at room temperature for 30 minutes. The reaction substrate DiFMUP with a final concentration of 30 μM was added, and the reaction solution was reacted at room temperature for 30 minutes. The phosphatase reaction was stopped by adding 5 μL of stop solution (60 mM HEPES, pH 7.5, 0.2% SDS).

[2] = test system: KYSE-520 cells; test: KYSE-520 cell proliferation experiment (CellTiter-Glo, 7 days); type: cell-based; settings: Homo sapiens
[3] = molecular target: T2, SHP2 wild-type phosphatase (recombinantly expressed full-length SHP2, aa 1-593) (Homo sapiens, UniProt Q06124); test: In vitro activity on SHP2 wild-type phosphatase (DiFMUP fluorescence); settings: wild-type full-length SHP2, activated polypeptide IRS1 0.5 nM, DiFMUP 30 μM;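 further: enzyme preincubated at room temperature, then DiFMUP reaction run at room temperature and halted with SDS, potency derived from a logistic curve fit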
T2 sequence (Q06124 1-593): T1 sequence (Q06124 1-593 E69K) with K69E
Experimental: 0.2 nM recombinantly expressed full-length SHP2 (aa 1-593), 0.5 nM activated polypeptide IRS1 with double phosphorylation sites (sequence: H2N-LN(pY)IDLDLY(dPEG8)LST(pY)ASINFQK-amide) and a series of concentrations of the test compound (final concentrations were 1 μM, 0.3 μM, 0.1 μM, 0.03 μM, 0.01 μM, 0.003 μM, 0.001 μM, 0.0003 μM, 0.0001 μM, 0.00003 μM) were added to the phosphatase reaction solution (60 mM HEPES, pH 7.5 0.005% Brij-35, 75 mM NaCl, 75 mM KCl, 1 mM EDTA, 5 mM DTT). The reaction solution was shaked (350 rpm) at room temperature for 30 minutes. The reaction substrate DiFMUP with a final concentration of 30 μM was added, and the reaction solution was reacted at room temperature for 30 minutes. The phosphatase reaction was stopped by adding 5 μL of stop solution (60 mM HEPES, pH 7.5, 0.2% SDS). Ex358 nm/Em455 fluorescence value was read on the fluorescence plate reader MD SpectraMax.
The IC50 value of the compound was calculated using the four-parameter logit method. In the following formula, x represents the logarithmic form of the compound concentration, and F(x) represents the effect value (the inhibition rate of cell proliferation under the given concentration condition): F(x)=((A−D)/(1+((x/C)^B)))+D. A, B, C and D are four parameters. Different concentrations correspond to different inhibition rates, based on which an inverse curve was plotted, and the IC50 of the inhibitor was calculated from the curve. The IC50 of the compound was calculated with Primer premier 6.0.

[4] = molecular target: T3, hERG potassium channel (Homo sapiens, UniProt Q12809); test: hERG current inhibition experiment (manual patch clamp, CHO hERG cells); type: cell-based; settings: whole-cell patch clamp, tail current
T3 construct: host or cells: CHO hERG cells
T3 sequence (Q12809 whole entry): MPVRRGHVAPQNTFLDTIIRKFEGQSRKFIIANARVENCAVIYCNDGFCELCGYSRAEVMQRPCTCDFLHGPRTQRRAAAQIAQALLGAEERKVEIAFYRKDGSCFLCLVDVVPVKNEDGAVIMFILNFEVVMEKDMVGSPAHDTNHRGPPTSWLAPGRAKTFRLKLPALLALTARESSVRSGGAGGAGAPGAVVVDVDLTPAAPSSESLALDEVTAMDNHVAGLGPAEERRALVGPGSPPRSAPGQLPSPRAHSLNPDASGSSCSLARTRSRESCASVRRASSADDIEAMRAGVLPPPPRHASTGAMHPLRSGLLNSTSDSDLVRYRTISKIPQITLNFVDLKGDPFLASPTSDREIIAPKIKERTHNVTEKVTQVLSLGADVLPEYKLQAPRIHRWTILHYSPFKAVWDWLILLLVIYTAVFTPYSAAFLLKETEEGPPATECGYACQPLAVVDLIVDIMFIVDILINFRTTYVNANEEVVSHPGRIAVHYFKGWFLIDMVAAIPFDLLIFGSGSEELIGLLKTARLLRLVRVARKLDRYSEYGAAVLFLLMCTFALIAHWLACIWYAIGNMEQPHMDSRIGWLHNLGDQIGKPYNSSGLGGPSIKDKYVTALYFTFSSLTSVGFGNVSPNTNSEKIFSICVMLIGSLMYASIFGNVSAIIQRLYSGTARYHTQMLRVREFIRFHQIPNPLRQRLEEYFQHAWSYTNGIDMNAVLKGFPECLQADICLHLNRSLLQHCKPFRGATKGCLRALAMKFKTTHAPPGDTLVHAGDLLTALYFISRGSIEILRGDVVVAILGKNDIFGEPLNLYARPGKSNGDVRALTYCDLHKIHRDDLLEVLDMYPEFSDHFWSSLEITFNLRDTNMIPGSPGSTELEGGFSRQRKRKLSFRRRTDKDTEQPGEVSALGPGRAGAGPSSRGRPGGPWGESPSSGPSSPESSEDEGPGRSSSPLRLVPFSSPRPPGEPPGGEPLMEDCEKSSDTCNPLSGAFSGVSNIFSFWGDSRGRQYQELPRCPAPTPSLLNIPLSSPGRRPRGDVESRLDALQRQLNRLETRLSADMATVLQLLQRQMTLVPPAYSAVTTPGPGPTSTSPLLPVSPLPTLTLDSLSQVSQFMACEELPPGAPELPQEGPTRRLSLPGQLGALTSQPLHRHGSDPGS
Experimental: In this experiment, whole-cell current recording was performed using a manual patch clamp system (HEKA EPC-10 signal amplification and digital conversion system, purchased from HEKA Electronic, Germany). The round glass slide of which surface CHO hERG cells (provided by Sophion Bioscience Inc., Denmark, the cell generation number was P21) were grown on was placed in an electrophysiological recording slot under an inverted microscope. The recording slot was continuously perfused with extracellular fluid (approximately 1 mL per minute). Conventional whole-cell patch clamp current recording technique was used in the experiment. The experiments were performed at normal room temperature (˜25° C.). The cells were clamped at a voltage of −80 mV. Cell patch clamp voltage was depolarized to +20 mV to activate hERG potassium channel, and to −50 mV after 5 seconds to eliminate inactivation and generate tail currents. The tail current peak was used as a value of hERG current. When the hERG potassium current recorded in the above steps became steady under continuous perfusion of the extracellular fluid in the recording slot, the drug to be tested could be added to the perfusion, until the inhibition effect of the drug on hERG current reached a steady state. Generally, the overlapping of most recent three consecutive current recording lines was used as a criterion to determine whether the state was stable. After reaching the steady state, the recording slot was perfused with extracellular fluid until the hERG current returned to the value before the drug adding. The test data was analyzed by HEKA Patchmaster (V2x73.2), Microsoft Excel and the data analysis software provided by Graphpad Prism 5.0.

[5] = molecular target: T4, SHP2 E76K (Homo sapiens, UniProt Q06124, E76K); test: In vitro activity on SHP2 mutant E76K phosphatase; type: biochemical
T4 construct: recombinantly expressed full-length SHP2 (aa 1-593) with E69K and E76K; purchased Novoprotein Scientific Inc
T4 sequence (Q06124 1-593 E76K): T1 sequence (Q06124 1-593 E69K) with K69E, E76K
Experimental: as §1

Row | Compound | IC50 ([1]; SHP2 E69K the activated polypeptide was added IC50, activated polypeptide IRS1 added) | IC50 ([1]; SHP2 E69K the activated polypeptide was not added IC50, activated polypeptide not added) | IC50 [2] | IC50 [3] | IC50 [4] | IC50 ([5]; SHP2 E76K the activated polypeptide was added IC50, activated polypeptide IRS1 added) | IC50 ([5]; SHP2 E76K the activated polypeptide was not added IC50, activated polypeptide not added) | IC50 ([1]; activated polypeptide IRS1 added, read-out: SHP2 E69K the activated polypeptide was added IC50) | IC50 ([1]; activated polypeptide not added, read-out: SHP2 E69K the activated polypeptide was not added IC50) | IC50 ([5]; activated polypeptide IRS1 added, read-out: SHP2 E76K the activated polypeptide was added IC50) | IC50 ([5]; activated polypeptide not added, read-out: SHP2 E76K the activated polypeptide was not added IC50)
1 | CNc1nccc(Sc2c(C)nc(N3CCC4(CC3)Cc3ncccc3[C@H]4N)n3ccnc23)c1Cl [Example 41, (S)-1′-(8-((3-Chloro-2-(methylamino)pyridin-4-yl)thio)-7-methylimidazo[1,2-c]pyrimidin-5-yl)-5,7-dihydrospiro[cyclopenta[b]pyridine-6,4′-piperidin]-5-amine] | 8.5 nM | 0.91 nM | 58.3 nM | 2.1 nM | 10200 nM | 134 nM | 5.4 nM |  |  |  | 
2 | CNc1nccc(Sc2cnc(N3CCC4(CC3)Cc3ncccc3[C@H]4N)n3ccnc23)c1Cl [Example 43, (S)-1′-(8-((3-Chloro-2-(methylamino)pyridin-4-yl)thio)imidazo[1,2-c]pyrimidin-5-yl)-5,7-dihydrospiro[cyclopenta[b]pyridine-6,4′-piperidin]-5-amine] |  |  | 30.4 nM | 2 nM | 10300 nM |  |  | 7.1 nM | 0.78 nM | 78 nM | 4.2 nM

From patent publication US20220073521A1, “PYRIMIDINE AND FIVE-MEMBERED NITROGEN HETEROCYCLE DERIVATIVE, PREPARATION METHOD THEREFOR, AND MEDICAL USES THEREOF” (Tuojie Biotech (Shanghai) Co., Ltd., priority 2018, published 2022)
